Test results reported in US20230014907A1, “INHIBITORS OF APOL1 AND METHODS OF USING SAME” (Vertex Pharmaceuticals Incorporated, priority 2020, published 2023).

biological target: T1, G1 APOL1 (Homo sapiens, UniProt O14791, I384M/S342G); assay: Acute APOL1 Thallium Assay with Inducible Stable Clones of HEK 293 Cells; format: cell-based; details: HEK 293 inducible stable clones, G1 APOL1; read-out: Thallium Assay (IC50)
T1 construct: expressed in transfected cells
T1 sequence (O14791 28-398 S342G/I384M): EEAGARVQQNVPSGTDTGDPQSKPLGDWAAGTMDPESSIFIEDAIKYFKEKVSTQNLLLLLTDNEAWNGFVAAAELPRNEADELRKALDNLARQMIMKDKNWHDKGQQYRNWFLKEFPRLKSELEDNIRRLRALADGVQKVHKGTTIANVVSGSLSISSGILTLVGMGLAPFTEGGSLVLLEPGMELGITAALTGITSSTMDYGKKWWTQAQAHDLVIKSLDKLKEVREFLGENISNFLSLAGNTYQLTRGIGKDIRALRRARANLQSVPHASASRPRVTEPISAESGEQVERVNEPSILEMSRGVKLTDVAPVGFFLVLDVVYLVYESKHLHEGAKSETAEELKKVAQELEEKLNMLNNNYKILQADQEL
Outline: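 Pore activity was read as the fluorescence increase from Tl+ entering cells loaded with an AM-ester thallium indicator dye. The cells were tetracycline-inducible HEK293 T-Rex expressing G1 APOL1 (clone DC3.25), induced when plated at 26000 per well and incubated at 37° C.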

IC50 [nM]	Compound
250 to 1000	Cc1cc(F)c2[nH]c(-c3ccc(F)cc3)c(CCC(=O)N[C@H](C)CO)c2c1 [Compound 213]
250 to 1000	O=C(CCc1c(-c2ccc(F)cc2)[nH]c2c(F)cc(Cl)cc12)NC(CO)CF (stereo not shown) [Compound 196]
> 1000	CS(=O)(=O)NCC(=O)NCCc1c(-c2ccc(F)cc2)[nH]c2c(F)cc(F)cc12 [Compound 321]
250 to 1000	C[C@H](CO)NC(=O)NCCc1c(-c2ccc(F)cc2)[nH]c2c(F)cc(F)cc12 [Compound 282]
250 to 1000	O=C(NCCc1c(-c2ccc(F)cc2)[nH]c2c(F)cc(F)cc12)C(O)C(F)(F)F (stereo not shown) [Compound 327]
> 1000	O=C(NCCc1c(-c2ccc(F)cc2)[nH]c2c(F)cc(F)cc12)NCc1cccc(O)c1 [Compound 264]
250 to 1000	O=C(N[C@H]1COC[C@@H]1O)OCCc1c(-c2ccc(F)cc2)[nH]c2c(F)cc(F)cc12 [Compound 474]
< 250	O=C(N[C@@H](CO)C(F)F)OCCc1c(-c2ccc(F)cc2)[nH]c2c(F)cc(F)cc12 [Compound 441]
250 to 1000	O=C(NCCc1c(-c2ccc(F)cc2)[nH]c2c(F)cc(F)cc12)C1CC1(F)F (stereo not shown) [Compound 404]
250 to 1000	C[C@H](O)C(=O)NCCc1c(-c2ccc(F)cc2)[nH]c2c(F)cc(F)cc12 [Compound 362]
250 to 1000	CCC(O)CNC(=O)OCCc1c(-c2ccc(F)cc2)[nH]c2c(F)cc(F)cc12 (stereo not shown) [Compound 472]
> 1000	O=C(NCCc1c(-c2ccc(F)cc2)[nH]c2c(F)cc(F)cc12)c1ccncc1 [Compound 402]
> 1000	Cn1ccnc1CCC(=O)NCCc1c(-c2ccc(F)cc2)[nH]c2c(F)cc(F)cc12 [Compound 371]
250 to 1000	O=C(N[C@H]1CCOC1)OCCc1c(-c2ccc(F)cc2)[nH]c2c(F)cc(F)cc12 [Compound 469]
> 1000	O=C(NCCc1c(-c2ccc(F)cc2)[nH]c2c(F)cc(F)cc12)[C@H]1CC[C@@H](O)CC1 [Compound 324]
> 1000	Cc1nccn1CC(=O)NCCc1c(-c2ccc(F)cc2)[nH]c2c(F)cc(F)cc12 [Compound 380]
250 to 1000	CC(CCO)NC(=O)OCCc1c(-c2ccc(F)cc2)[nH]c2c(F)cc(F)cc12 (racemic) [Compound 457]
> 1000	C=CC(=O)NCCc1c(-c2ccc(F)cc2)[nH]c2c(F)cc(F)cc12 [Compound 417]
> 1000	O=C1CC(NC(=O)CCCc2c(-c3ccc(F)cc3)[nH]c3c(F)cc(F)cc23)CN1 (stereo not shown) [Compound 253]
> 1000	CO[C@H]1C[C@@H](NC(=O)OCCc2c(-c3ccc(F)cc3)[nH]c3c(F)cc(F)cc23)C1 [Compound 496]
> 1000	O=C(NCCc1c(-c2ccc(F)cc2)[nH]c2c(F)cc(F)cc12)c1cncnc1 [Compound 400]
> 1000	O=C(CCc1c(-c2ccc(F)cc2)[nH]c2c(F)cc(Cl)cc12)NC[C@H](O)CO [Compound 204]
> 1000	COC1CC1NC(=O)OCCc1c(-c2ccc(F)cc2)[nH]c2c(F)cc(F)cc12 (stereo not shown) [Compound 479]
> 1000	O=C(CCc1c(-c2ccc(F)cc2)[nH]c2c(F)cc(F)cc12)N[C@H]1C[C@H](O)C1 [Compound 159]

IC50 [nM]	Compound
250 to 1000	O=C(NC1CC(F)(F)C1)OCCc1c(-c2ccc(F)cc2)[nH]c2c(F)cc(F)cc12 [Compound 465]
> 1000	O=C(NCCc1c(-c2ccc(F)cc2)[nH]c2c(F)cc(F)cc12)C1CNC1=O (stereo not shown) [Compound 350]
> 1000	O=C(NCCc1c(-c2ccc(F)cc2)[nH]c2c(F)cc(F)cc12)NCC1CC(F)(F)C1 [Compound 289]
> 1000	Cc1cc(F)c2[nH]c(-c3ccc(F)cc3)c(CCC(=O)N[C@H](CO)C(N)=O)c2c1 [Compound 220]
> 1000	NC(=O)[C@H](CO)NC(=O)OCCc1c(-c2ccc(F)cc2)[nH]c2c(F)cc(F)cc12 [Compound 475]
> 1000	Cn1cnc(CNC(=O)OCCc2c(-c3ccc(F)cc3)[nH]c3c(F)cc(F)cc23)c1 [Compound 478]
< 250	CC(CC#N)NC(=O)NCCc1c(-c2ccc(F)cc2)[nH]c2c(F)cc(F)cc12 (racemic) [Compound 301]
250 to 1000	CC(C)[C@@H](CO)NC(=O)OCCc1c(-c2ccc(F)cc2)[nH]c2c(F)cc(F)cc12 [Compound 459]
< 250	O=C(NC1(CO)CCC1)OCCc1c(-c2ccc(F)cc2)[nH]c2c(F)cc(F)cc12 [Compound 436]
250 to 1000	O=C(NCCc1c(-c2ccc(F)cc2)[nH]c2c(F)cc(F)cc12)C1(O)COC1 [Compound 342]
< 250	O=C(NC(CO)C1CC1)OCCc1c(-c2ccc(F)cc2)[nH]c2c(F)cc(F)cc12 (stereo not shown) [Compound 451]
> 1000	NC(=O)CCCc1c(-c2ccc(F)cc2)[nH]c2c(F)cc(F)cc12 [Compound 243]
> 1000	CC(C)(O)CCNC(=O)NCCc1c(-c2ccc(F)cc2)[nH]c2c(F)cc(F)cc12 [Compound 270]
> 1000	CN(C[C@H](O)CO)C(=O)CCc1c(-c2ccc(F)cc2)[nH]c2c(F)cc(Cl)cc12 [Compound 211]
> 1000	CN1CC(NC(=O)OCCc2c(-c3ccc(F)cc3)[nH]c3c(F)cc(F)cc23)CC1=O (stereo not shown) [Compound 494]
> 1000	CN(C)C(=O)CCC(=O)NCCc1c(-c2ccc(F)cc2)[nH]c2c(F)cc(F)cc12 [Compound 374]
> 1000	Cc1ccc(CNC(=O)OCCc2c(-c3ccc(F)cc3)[nH]c3c(F)cc(F)cc23)o1 [Compound 485]
> 1000	O=C1CC(C(=O)NCCc2c(-c3ccc(F)cc3)[nH]c3c(F)cc(F)cc23)CCN1 (stereo not shown) [Compound 331]
> 1000	O=C(NCCc1c(-c2ccc(F)cc2)[nH]c2c(F)cc(F)cc12)c1cscn1 [Compound 385]
> 1000	CC(C)(O)CNC(=O)NCCc1c(-c2ccc(F)cc2)[nH]c2c(F)cc(F)cc12 [Compound 279]
> 1000	CS(=O)(=O)CCNC(=O)NCCc1c(-c2ccc(F)cc2)[nH]c2c(F)cc(F)cc12 [Compound 287]
> 1000	CC(O)(CO)CNC(=O)CCCc1c(-c2ccc(F)cc2)[nH]c2c(F)cc(F)cc12 (stereo not shown) [Compound 250]
250 to 1000	NCC(=O)NCCc1c(-c2ccc(F)cc2)[nH]c2c(F)cc(F)cc12 [Compound 366]
250 to 1000	O=C(NCCc1c(-c2ccc(F)cc2)[nH]c2c(F)cc(F)cc12)NC1(CCO)CC1 [Compound 274]

IC50 [nM]	Compound
> 1000	O=C(NCCc1c(-c2ccc(F)cc2)[nH]c2c(F)cc(F)cc12)[C@H]1CCOC1 [Compound 407]
> 1000	O=C(COc1cccnc1)NCCc1c(-c2ccc(F)cc2)[nH]c2c(F)cc(F)cc12 [Compound 373]
< 250	CC(C)(CO)NC(=O)OCCc1c(-c2ccc(F)cc2)[nH]c2c(F)cc(F)cc12 [Compound 435]
< 250	O=C(N[C@@H]1CCNC1=O)OCCc1c(-c2ccc(F)cc2)[nH]c2c(F)cc(F)cc12 [Compound 448]
< 250	CC(CO)C(=O)NCCc1c(-c2ccc(F)cc2)[nH]c2c(F)cc(F)cc12 (racemic) [Compound 357]
> 1000	O=C(NCC1CCOC1)OCCc1c(-c2ccc(F)cc2)[nH]c2c(F)cc(F)cc12 (stereo not shown) [Compound 491]
> 1000	O=C(CN1CCCC1=O)NCCc1c(-c2ccc(F)cc2)[nH]c2c(F)cc(F)cc12 [Compound 375]
> 1000	Cc1cc(F)c2[nH]c(-c3ccc(F)cc3)c(CCC(=O)NC(CO)CF)c2c1 (stereo not shown) [Compound 221]
< 250	O=C(CCc1c(-c2ccc(F)cc2)[nH]c2c(Cl)cccc12)N[C@@H](CO)C(F)F [Compound 231, 3-[7-chloro-2-(4-fluorophenyl)-1H-indol-3-yl]-N-[(1S)-2,2-difluoro-1-(hydroxymethyl)ethyl]propanamide]
> 1000	C[C@H](O)CC(=O)NCCc1c(-c2ccc(F)cc2)[nH]c2c(F)cc(F)cc12 [Compound 356]
> 1000	COCC1(CNC(=O)NCCc2c(-c3ccc(F)cc3)[nH]c3c(F)cc(F)cc23)CC1 [Compound 292]
250 to 1000	O=C(NCCc1c(-c2ccc(F)cc2)[nH]c2c(F)cc(F)cc12)C1CC1 [Compound 415]
> 1000	C[C@@H](CO)NC(=O)CCc1c(-c2ccc(F)cc2)[nH]c2c(F)cc(Cl)cc12 [Compound 203]
> 1000	O=C(CCCc1c(-c2ccc(F)cc2)[nH]c2c(F)cc(F)cc12)N[C@H]1C[C@@H](CO)NC1=O [Compound 256]
> 1000	NC(=O)[C@@H](CO)NC(=O)CCc1c(-c2ccc(F)cc2)[nH]c2c(F)cc(Cl)cc12 [Compound 202]
> 1000	O=C(Cn1cccc1)NCCc1c(-c2ccc(F)cc2)[nH]c2c(F)cc(F)cc12 [Compound 395]
> 1000	Cc1cc(F)c2[nH]c(-c3ccc(F)cc3)c(CCC(=O)NC[C@H](O)CO)c2c1 [Compound 226]
250 to 1000	CC(CO)(CO)NC(=O)CCc1c(-c2ccc(F)cc2)[nH]c2c(F)cc(Cl)cc12 [Compound 197]
250 to 1000	N#CC(NC(=O)OCCc1c(-c2ccc(F)cc2)[nH]c2c(F)cc(F)cc12)C(N)=O (stereo not shown) [Compound 456]
250 to 1000	CC(CCO)NC(=O)CCc1c(-c2ccc(F)cc2)[nH]c2c(F)cc(Cl)cc12 (racemic) [Compound 200]
250 to 1000	Cc1cc(F)c2[nH]c(-c3ccc(F)cc3)c(CCC(=O)NC(C#N)CO)c2c1 (stereo not shown) [Compound 215]
250 to 1000	O=C(NCCc1c(-c2ccc(F)cc2)[nH]c2c(F)cc(F)cc12)N[C@@H](CO)C(F)(F)F [Compound 261]
